ChEMBL document CHEMBL5113398, “Design and synthesis of new quinoline derivatives as selective C-RAF kinase inhibitors with potent anticancer activity” (Eur J Med Chem, 2022)

Assays:
K562 = assay: Anticancer activity against human K562 cells assessed as total cell growth inhibition incubated for 48 hrs by SRB assay; assay type: functional
IGROV-1 = assay: Anticancer activity against human IGROV-1 cells assessed as total cell growth inhibition incubated for 48 hrs by SRB assay; assay type: functional
MDA-MB-435 = assay: Anticancer activity against human MDA-MB-435 cells assessed as cell growth inhibition incubated for 48 hrs by SRB assay; assay type: functional
HOP-92 = assay: Anticancer activity against human HOP-92 cells assessed as total cell growth inhibition incubated for 48 hrs by SRB assay; assay type: functional
RPMI-8226 = assay: Anticancer activity against human RPMI-8226 cells assessed as cell growth inhibition incubated for 48 hrs by SRB assay; assay type: functional
PC-3 [1] = assay: Anticancer activity against human PC-3 cells assessed as total cell growth inhibition incubated for 48 hrs by SRB assay; assay type: functional
SW-620 [2] = assay: Anticancer activity against human SW-620 cells assessed as cell growth inhibition incubated for 48 hrs by SRB assay; assay type: functional
ACHN [3] = assay: Anticancer activity against human ACHN cells assessed as total cell growth inhibition incubated for 48 hrs by SRB assay; assay type: functional
MCF7 = assay: Anticancer activity against human MCF7 cells assessed as cell growth inhibition incubated for 48 hrs by SRB assay; assay type: functional
EKVX = assay: Anticancer activity against human EKVX cells assessed as cell growth inhibition incubated for 48 hrs by SRB assay; assay type: functional
SN12C = assay: Anticancer activity against human SN12C cells assessed as cell growth inhibition incubated for 48 hrs by SRB assay; assay type: functional
Malme-3M = assay: Anticancer activity against human Malme-3M cells assessed as cell growth inhibition incubated for 48 hrs by SRB assay; assay type: functional
BT-549 = assay: Anticancer activity against human BT-549 cells assessed as cell growth inhibition incubated for 48 hrs by SRB assay; assay type: functional
UACC-62 [4] = assay: Anticancer activity against human UACC-62 cells assessed as cell growth inhibition incubated for 48 hrs by SRB assay; assay type: functional
OVCAR-5 [5] = assay: Anticancer activity against human OVCAR-5 cells assessed as total cell growth inhibition incubated for 48 hrs by SRB assay; assay type: functional
OVCAR-8 = assay: Anticancer activity against human OVCAR-8 cells assessed as cell growth inhibition incubated for 48 hrs by SRB assay; assay type: functional
LOX IMVI = assay: Anticancer activity against human LOX IMVI cells assessed as cell growth inhibition incubated for 48 hrs by SRB assay; assay type: functional
[6] = n-Octanol/PBS partition coefficient, logD of the compound at pH 7.4; assay type: physicochemical
CCRF-CEM [7] = assay: Anticancer activity against human CCRF-CEM cells assessed as cell growth inhibition incubated for 48 hrs by SRB assay; assay type: functional
U-251 [8] = assay: Anticancer activity against human U-251 cells assessed as total cell growth inhibition incubated for 48 hrs by SRB assay; assay type: functional
SF-268 = assay: Anticancer activity against human SF-268 cells assessed as total cell growth inhibition incubated for 48 hrs by SRB assay; assay type: functional
SNB-19 = assay: Anticancer activity against human SNB-19 cells assessed as total cell growth inhibition incubated for 48 hrs by SRB assay; assay type: functional
U-251 [9] = assay: Anticancer activity against human U-251 cells assessed as cell growth inhibition incubated for 48 hrs by SRB assay; assay type: functional
HCC 2998 [10] = assay: Anticancer activity against human HCC 2998 cells assessed as cell growth inhibition incubated for 48 hrs by SRB assay; assay type: functional
MDA-MB-231 [11] = assay: Anticancer activity against human MDA-MB-231 cells assessed as cell growth inhibition incubated for 48 hrs by SRB assay; assay type: functional
OVCAR-5 [12] = assay: Anticancer activity against human OVCAR-5 cells assessed as cell growth inhibition incubated for 48 hrs by SRB assay; assay type: functional
SF-295 = assay: Anticancer activity against human SF-295 cells assessed as total cell growth inhibition incubated for 48 hrs by SRB assay; assay type: functional
ACHN [13] = assay: Anticancer activity against human ACHN cells assessed as cell growth inhibition incubated for 48 hrs by SRB assay; assay type: functional
MDA-MB-231 [14] = assay: Anticancer activity against human MDA-MB-231 cells assessed as total cell growth inhibition incubated for 48 hrs by SRB assay; assay type: functional
TK-10 [15] = assay: Anticancer activity against human TK-10 cells assessed as cell growth inhibition incubated for 48 hrs by SRB assay; assay type: functional
[16] = molecular target: Hepatocyte growth factor receptor (Homo sapiens) (UniProt P08581); assay: Inhibition of MET (unknown origin) at 1 uM in presence of ATP by hotspot kinase assay
NCI-H322M [17] = assay: Anticancer activity against human NCI-H322M cells assessed as total cell growth inhibition incubated for 48 hrs by SRB assay; assay type: functional
[18] = molecular target: Vascular endothelial growth factor receptor 2 (Homo sapiens) (UniProt P35968); assay: Inhibition of VEGFR2 (unknown origin) at 1 uM in presence of ATP by hotspot kinase assay
NCI-H226 [19] = assay: Anticancer activity against human NCI-H226 cells assessed as total cell growth inhibition incubated for 48 hrs by SRB assay; assay type: functional
786-0 = assay: Anticancer activity against human 786-0 cells assessed as cell growth inhibition incubated for 48 hrs by SRB assay; assay type: functional
UACC-62 [20] = assay: Anticancer activity against human UACC-62 cells assessed as total cell growth inhibition incubated for 48 hrs by SRB assay; assay type: functional
HCC 2998 [21] = assay: Anticancer activity against human HCC 2998 cells assessed as total cell growth inhibition incubated for 48 hrs by SRB assay; assay type: functional
NCI-H322M [22] = assay: Anticancer activity against human NCI-H322M cells assessed as cell growth inhibition incubated for 48 hrs by SRB assay; assay type: functional
SF-539 = assay: Anticancer activity against human SF-539 cells assessed as cell growth inhibition incubated for 48 hrs by SRB assay; assay type: functional
SK-OV-3 = assay: Anticancer activity against human SK-OV-3 cells assessed as cell growth inhibition incubated for 48 hrs by SRB assay; assay type: functional
CCRF-CEM [23] = assay: Anticancer activity against human CCRF-CEM cells assessed as total cell growth inhibition incubated for 48 hrs by SRB assay; assay type: functional
TK-10 [24] = assay: Anticancer activity against human TK-10 cells assessed as total cell growth inhibition incubated for 48 hrs by SRB assay; assay type: functional
CAKI-1 = assay: Anticancer activity against human CAKI-1 cells assessed as total cell growth inhibition incubated for 48 hrs by SRB assay; assay type: functional
MOLT-4 = assay: Anticancer activity against human MOLT-4 cells assessed as total cell growth inhibition incubated for 48 hrs by SRB assay; assay type: functional
MDA-MB-468 = assay: Anticancer activity against human MDA-MB-468 cells assessed as cell growth inhibition incubated for 48 hrs by SRB assay; assay type: functional
PC-3 [25] = assay: Anticancer activity against human PC-3 cells assessed as cell growth inhibition incubated for 48 hrs by SRB assay; assay type: functional
HCT-116 = assay: Anticancer activity against human HCT-116 cells assessed as cell growth inhibition incubated for 48 hrs by SRB assay; assay type: functional
NCI-H226 [26] = assay: Anticancer activity against human NCI-H226 cells assessed as cell growth inhibition incubated for 48 hrs by SRB assay; assay type: functional
M14 = assay: Anticancer activity against human M14 cells assessed as cell growth inhibition incubated for 48 hrs by SRB assay; assay type: functional
SW-620 [27] = assay: Anticancer activity against human SW-620 cells assessed as total cell growth inhibition incubated for 48 hrs by SRB assay; assay type: functional

Vascular endothelial growth factor receptor 2 (Homo sapiens), sequence (P35968 whole entry): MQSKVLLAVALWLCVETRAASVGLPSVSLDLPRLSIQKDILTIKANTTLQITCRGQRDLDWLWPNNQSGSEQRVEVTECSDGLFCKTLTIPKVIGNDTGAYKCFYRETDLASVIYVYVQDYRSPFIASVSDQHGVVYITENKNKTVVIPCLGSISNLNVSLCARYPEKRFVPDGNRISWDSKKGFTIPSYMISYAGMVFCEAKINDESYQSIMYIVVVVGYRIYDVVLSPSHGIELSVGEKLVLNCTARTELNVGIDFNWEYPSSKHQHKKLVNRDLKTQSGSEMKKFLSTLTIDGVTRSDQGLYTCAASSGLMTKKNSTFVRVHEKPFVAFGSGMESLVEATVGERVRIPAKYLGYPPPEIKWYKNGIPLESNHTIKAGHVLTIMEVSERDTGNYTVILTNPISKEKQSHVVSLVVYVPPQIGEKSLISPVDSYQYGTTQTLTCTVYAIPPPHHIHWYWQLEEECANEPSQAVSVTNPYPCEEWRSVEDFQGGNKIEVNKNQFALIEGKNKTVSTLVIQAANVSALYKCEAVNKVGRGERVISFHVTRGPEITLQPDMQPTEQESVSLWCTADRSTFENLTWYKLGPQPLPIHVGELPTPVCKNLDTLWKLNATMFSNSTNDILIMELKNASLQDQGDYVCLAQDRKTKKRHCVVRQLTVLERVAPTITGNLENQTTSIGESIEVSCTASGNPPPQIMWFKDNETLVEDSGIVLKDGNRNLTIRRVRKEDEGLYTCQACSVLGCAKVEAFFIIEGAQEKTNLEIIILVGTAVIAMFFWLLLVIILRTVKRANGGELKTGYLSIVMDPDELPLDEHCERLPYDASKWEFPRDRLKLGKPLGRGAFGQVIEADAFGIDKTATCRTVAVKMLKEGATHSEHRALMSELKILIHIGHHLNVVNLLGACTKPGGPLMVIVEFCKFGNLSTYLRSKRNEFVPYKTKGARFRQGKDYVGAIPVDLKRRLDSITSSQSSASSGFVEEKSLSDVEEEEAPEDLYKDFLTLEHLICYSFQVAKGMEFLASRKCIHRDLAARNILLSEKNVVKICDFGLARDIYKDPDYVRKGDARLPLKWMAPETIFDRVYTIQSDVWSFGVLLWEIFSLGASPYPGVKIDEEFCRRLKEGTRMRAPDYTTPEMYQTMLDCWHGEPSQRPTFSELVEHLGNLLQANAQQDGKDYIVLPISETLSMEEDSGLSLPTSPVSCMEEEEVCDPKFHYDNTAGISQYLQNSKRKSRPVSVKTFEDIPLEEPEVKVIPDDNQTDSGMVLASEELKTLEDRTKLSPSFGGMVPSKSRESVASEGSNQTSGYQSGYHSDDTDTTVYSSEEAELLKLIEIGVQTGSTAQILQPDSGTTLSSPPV
Hepatocyte growth factor receptor (Homo sapiens), sequence (P08581 whole entry): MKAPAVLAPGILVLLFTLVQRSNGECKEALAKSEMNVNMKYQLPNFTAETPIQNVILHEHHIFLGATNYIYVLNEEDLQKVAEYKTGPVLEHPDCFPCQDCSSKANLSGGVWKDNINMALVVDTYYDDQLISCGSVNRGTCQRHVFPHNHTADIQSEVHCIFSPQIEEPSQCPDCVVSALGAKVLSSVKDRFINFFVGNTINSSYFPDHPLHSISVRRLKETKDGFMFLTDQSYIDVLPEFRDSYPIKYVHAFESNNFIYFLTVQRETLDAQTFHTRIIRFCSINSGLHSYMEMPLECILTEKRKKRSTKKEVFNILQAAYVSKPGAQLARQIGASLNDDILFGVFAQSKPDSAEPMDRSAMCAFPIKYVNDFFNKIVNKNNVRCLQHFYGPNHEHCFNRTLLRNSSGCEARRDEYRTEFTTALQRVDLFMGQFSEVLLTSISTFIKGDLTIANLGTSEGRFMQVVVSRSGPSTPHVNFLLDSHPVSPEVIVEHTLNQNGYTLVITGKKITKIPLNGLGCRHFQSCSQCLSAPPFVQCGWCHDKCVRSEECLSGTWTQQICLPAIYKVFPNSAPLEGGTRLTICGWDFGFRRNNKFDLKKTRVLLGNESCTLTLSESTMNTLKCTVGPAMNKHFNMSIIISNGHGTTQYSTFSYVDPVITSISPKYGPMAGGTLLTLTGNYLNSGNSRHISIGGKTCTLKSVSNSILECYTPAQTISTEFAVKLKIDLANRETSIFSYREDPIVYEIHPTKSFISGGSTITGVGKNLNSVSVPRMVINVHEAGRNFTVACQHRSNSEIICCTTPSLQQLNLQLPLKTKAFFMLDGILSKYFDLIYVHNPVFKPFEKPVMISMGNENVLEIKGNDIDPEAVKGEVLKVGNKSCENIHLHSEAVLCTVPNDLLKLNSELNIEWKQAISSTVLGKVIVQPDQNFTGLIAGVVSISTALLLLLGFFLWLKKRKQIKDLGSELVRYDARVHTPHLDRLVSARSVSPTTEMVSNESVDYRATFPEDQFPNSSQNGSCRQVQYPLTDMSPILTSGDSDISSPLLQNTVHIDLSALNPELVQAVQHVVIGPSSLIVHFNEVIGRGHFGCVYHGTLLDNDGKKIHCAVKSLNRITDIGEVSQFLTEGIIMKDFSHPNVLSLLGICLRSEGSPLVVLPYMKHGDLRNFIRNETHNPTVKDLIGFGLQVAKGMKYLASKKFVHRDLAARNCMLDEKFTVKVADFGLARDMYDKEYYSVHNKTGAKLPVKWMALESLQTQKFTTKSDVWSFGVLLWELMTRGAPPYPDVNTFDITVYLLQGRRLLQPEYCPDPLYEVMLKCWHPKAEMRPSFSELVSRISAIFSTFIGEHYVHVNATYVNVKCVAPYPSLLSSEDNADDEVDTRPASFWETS

COc1cc2cc(Oc3ccc(NC(=O)Nc4ccc(F)c(C(F)(F)F)c4)cc3)c(C)nc2cc1OCCN1CCOCC1
TGI (K562): 10.3 µM | TGI (IGROV-1): 19.5 µM | GI50 (MDA-MB-435): 1.91 µM | TGI (HOP-92): 4.96 µM | GI50 (RPMI-8226): 1.12 µM | TGI (PC-3 [1]): 10.1 µM | GI50 (SW-620 [2]): 3.34 µM | TGI (ACHN [3]): 11.4 µM | GI50 (MCF7): 1.46 µM | GI50 (EKVX): 2.53 µM | GI50 (SN12C): 2.65 µM | GI50 (Malme-3M): 1.57 µM | GI50 (BT-549): 2.44 µM | GI50 (UACC-62 [4]): 1.36 µM | TGI (OVCAR-5 [5]): 21.7 µM | GI50 (OVCAR-8): 2.73 µM | GI50 (LOX IMVI): 1.44 µM | logD [6]: 2.54 | GI50 (CCRF-CEM [7]): 1.72 µM | TGI (U-251 [8]): 11.1 µM | TGI (SF-268): 19.8 µM | TGI (SNB-19): 19.3 µM | GI50 (U-251 [9]): 2.83 µM | GI50 (HCC 2998 [10]): 5.34 µM | GI50 (MDA-MB-231 [11]): 2.83 µM | GI50 (OVCAR-5 [12]): 5.11 µM | TGI (SF-295): 4.22 µM | GI50 (ACHN [13]): 2.3 µM | TGI (MDA-MB-231 [14]): 9.02 µM | GI50 (TK-10 [15]): 4.94 µM | inhibition [16]: 3.05% | TGI (NCI-H322M [17]): 13.6 µM | inhibition [18]: -5.85% | TGI (NCI-H226 [19]): 13.2 µM | GI50 (786-0): 1.73 µM | TGI (UACC-62 [20]): 4.24 µM | TGI (HCC 2998 [21]): 16.7 µM | GI50 (NCI-H322M [22]): 3.37 µM | GI50 (SF-539): 1.77 µM | GI50 (SK-OV-3): 3.76 µM | TGI (CCRF-CEM [23]): 11.5 µM | TGI (TK-10 [24]): 25.1 µM | TGI (CAKI-1): 9.55 µM | TGI (MOLT-4): 11.4 µM | GI50 (MDA-MB-468): 0.45 µM | GI50 (PC-3 [25]): 1.44 µM | GI50 (HCT-116): 1.11 µM | GI50 (NCI-H226 [26]): 2.55 µM | GI50 (M14): 1.53 µM | TGI (SW-620 [27]): 9.86 µM
